In patent publication US9073926B2, “Heterocyclic compounds containing a pyrrolopyridine or benzimidazole core” (Boehringer Ingelheim International GmbH, priority 2009, dated 2015):

These compounds were tested against Human RSK2 (Homo sapiens (Human), UniProt P51812) (assay: Human RSK2 Assay (Kinase Glo Plus, residual ATP)). Details: 0.75 nM His-RSK2, 0.75 μM ATP, 1.0 μM S6 Kinase/RSK Substrate Peptide 1.
Format: biochemical
Experimental: Experimental Method A: Human RSK2 Assay
Compounds are assessed for their ability to inhibit the phosphorylation of a substrate peptide by RSK2.
Human RSK2 protein, purchased from Invitrogen, is used to measure kinase activity utilizing Kinase Glo Plus (Promega) a homogeneous assay technology, which uses a luciferin-luciferase based ATP detection reagent to quantify residual ATP. The assay is performed using 0.75 nM His-RSK2, 0.75 μM ATP and 1.0 μM S6 Kinase/RSK Substrate Peptide 1 (Upstate, catalog #12-124), in assay buffer consisting of 25 mM HEPES, pH 7.5, 10 mM MgCl2, 5 mM MnCl2, 50 mM KCl, 0.2% BSA, 0.01% CHAPS, 100 μM Na3VO4, 0.5 mM DTT, and 1% DMSO. Solutions of test compounds at various concentrations are prepared by 1:3 fold serial dilution of a 1 mM solution of compound in DMSO. The DMSO solutions are further diluted with assay buffer to a final concentration of DMSO of 5%.
The assay is performed in a 384 well, white, non-binding plate (Corning, catalogue #3574). Solutions of test compounds (10 μL) are transferred to a dry assay plate, followed by addition of 20 μL kinase and 20 μL ATP+Substrate Peptide 1 described above. The kinase reaction mixture is incubated for 90 minutes at 28° C. followed by addition of 30 μL of ATP detection reagent for 15 minutes at room temperature. The relative light unit (RLU) signal is measured on a LJL Analyst (Molecular Devices) in luminescence mode using 384 aperture. The RLU signals were converted to percent of control (POC) values using the formula: POC=100*(BCTRL−Signal)/(BCTRL−PCTRL), where Signal is the test well RLU signal, BCTRL is the average of background (negative control), which consists of ATP+peptide and compound buffer, well signals on the plate, and PCTRL is the average of positive control, which consists of kinase, ATP+peptide, and compound buffer, well signals on the plate. For concentration-responsive compounds, POC as a function of test compound concentration are fitted to a 4-parameter logistic equation of the form: Y=A+(B−A)/[1+(x/C)^D], where A, B, C, and D are fitted parameters (parameter B is fixed at zero POC), and x and y are the independent and dependent variables, respectively. The IC50 (50% inhibitory concentration) is determined as the inflection point parameter, C. Experimental Method B: Human RSK2 Trans-Reporter Assay

Human RSK2, sequence (P51812 whole entry): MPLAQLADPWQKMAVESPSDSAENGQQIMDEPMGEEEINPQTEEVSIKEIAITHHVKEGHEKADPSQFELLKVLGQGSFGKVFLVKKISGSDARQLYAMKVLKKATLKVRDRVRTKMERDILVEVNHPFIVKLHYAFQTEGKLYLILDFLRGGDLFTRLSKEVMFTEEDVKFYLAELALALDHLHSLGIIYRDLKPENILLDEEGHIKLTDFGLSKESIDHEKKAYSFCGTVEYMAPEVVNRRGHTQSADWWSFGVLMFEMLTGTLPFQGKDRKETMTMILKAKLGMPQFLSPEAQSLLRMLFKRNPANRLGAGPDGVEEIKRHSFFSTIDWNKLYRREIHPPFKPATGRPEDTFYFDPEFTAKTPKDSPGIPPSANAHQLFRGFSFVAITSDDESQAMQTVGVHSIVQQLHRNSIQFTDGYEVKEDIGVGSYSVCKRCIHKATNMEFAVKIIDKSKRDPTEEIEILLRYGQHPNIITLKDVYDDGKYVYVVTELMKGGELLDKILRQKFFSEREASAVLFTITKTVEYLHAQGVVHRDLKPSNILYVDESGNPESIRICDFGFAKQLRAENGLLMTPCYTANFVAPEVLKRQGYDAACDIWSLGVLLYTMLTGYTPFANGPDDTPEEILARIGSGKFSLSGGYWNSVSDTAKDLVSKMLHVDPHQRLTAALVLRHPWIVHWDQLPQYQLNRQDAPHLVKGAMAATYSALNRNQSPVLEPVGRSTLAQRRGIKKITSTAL

SMILES | IC50 [nM]
C[C@H]1NC(=O)c2cc3ccc(C(=O)Nc4cnn(Cc5ccccc5)c4)nc3n2[C@H]1C (relative stereo) [Example 61, N-(1-benzyl-1H-pyrazol-4-yl)-cis-8,9-dimethyl-6-oxo-6,7,8,9-tetrahydropyrido[3′,2′:4,5]pyrrolo[1,2-a]pyrazine-2-carboxamide] | 0.34
O=C(Nc1cccnc1)c1ccc2nc3n(c2c1)CCCNC3=O [Example 1, 1-oxo-N-(pyridin-3-yl)-2,3,4,5-tetrahydro-1H-[1,4]diazepino[1,2-a]benzimidazole-8-carboxamide] | 5600
Cn1c(NC(=O)c2ccc3nc4n(c3c2)CCCNC4=O)nc2ccccc21 [Example 2, N-(1-methyl-1H-benzimidazol-2-yl)-1-oxo-2,3,4,5-tetrahydro-1H-[1,4]diazepino[1,2-a]benzimidazole-8-carboxamide] | 35
CCn1c(NC(=O)c2ccc3nc4n(c3c2)CCCNC4=O)nc2ccccc21 [Example 3, N-(1-ethyl-1H-benzimidazol-2-yl)-1-oxo-2,3,4,5-tetrahydro-1H-[1,4]diazepino[1,2-a]benzimidazole-8-carboxamide] | 5.5
CC(C)n1c(NC(=O)c2ccc3nc4n(c3c2)CCCNC4=O)nc2ccccc21 [Example 4, 1-oxo-N-[1-(propan-2-yl)-1H-benzimidazol-2-yl]-2,3,4,5-tetrahydro-1H-[1,4]diazepino[1,2-a]benzimidazole-8-carboxamide] | 33
Cc1ccnc(NC(=O)c2ccc3nc4n(c3c2)CCCNC4=O)c1 [Example 5, N-(4-methylpyridin-2-yl)-1-oxo-2,3,4,5-tetrahydro-1H-[1,4]diazepino[1,2-a]benzimidazole-8-carboxamide] | 3200
O=C(Nc1cnn(Cc2ccccc2)c1)c1ccc2nc3n(c2c1)CCCNC3=O [Example 6, N-(1-benzyl-1H-pyrazol-4-yl)-1-oxo-2,3,4,5-tetrahydro-1H-[1,4]diazepino[1,2-a]benzimidazole-8-carboxamide] | 44
Cc1nc(-c2cccc(NC(=O)c3ccc4nc5n(c4c3)CCCNC5=O)c2)cs1 [Example 7, N-[3-(2-methyl-1,3-thiazol-4-yl)phenyl]-1-oxo-2,3,4,5-tetrahydro-1H-[1,4]diazepino[1,2-a]benzimidazole-8-carboxamide] | 1700
O=C(Nc1cccc(F)c1)c1ccc2nc3n(c2c1)CCCNC3=O [Example 8, N-(3-fluorophenyl)-1-oxo-2,3,4,5-tetrahydro-1H-[1,4]diazepino[1,2-a]benzimidazole-8-carboxamide] | 960
NC(=O)c1ccccc1NC(=O)c1ccc2nc3n(c2c1)CCCNC3=O [Example 9, N-(2-carbamoylphenyl)-1-oxo-2,3,4,5-tetrahydro-1H-[1,4]diazepino[1,2-a]benzimidazole-8-carboxamide] | 295
Cn1cc(NC(=O)c2ccc3nc4n(c3c2)CCCNC4=O)nc1C(=O)NC1CCCC1 [Example 10, N-[2-(cyclopentylcarbamoyl)-1-methyl-1H-imidazol-4-yl]-1-oxo-2,3,4,5-tetrahydro-1H-[1,4]diazepino[1,2-a]benzimidazole-8-carboxamide] | 69
CC(C)n1ncc2cc(NC(=O)c3ccc4nc5n(c4c3)CCCNC5=O)cnc21 [Example 11, 1-oxo-N-[1-(propan-2-yl)-1H-pyrazolo[3,4-b]pyridin-5-yl]-2,3,4,5-tetrahydro-1H-[1,4]diazepino[1,2-a]benzimidazole-8-carboxamide] | 870
O=C(Nc1cnc2ccccc2c1)c1ccc2nc3n(c2c1)CCCNC3=O [Example 12, 1-oxo-N-(quinolin-3-yl)-2,3,4,5-tetrahydro-1H-[1,4]diazepino[1,2-a]benzimidazole-8-carboxamide] | 1200
Cn1cc(NC(=O)c2ccc3nc4n(c3c2)CCCNC4=O)cn1 [Example 13, N-(1-methyl-1H-pyrazol-4-yl)-1-oxo-2,3,4,5-tetrahydro-1H-[1,4]diazepino[1,2-a]benzimidazole-8-carboxamide] | 320
Cn1cc(NC(=O)c2ccc3nc4n(c3c2)C(C)(C)CCNC4=O)cn1 [Example 14, 5,5-dimethyl-N-(1-methyl-1H-pyrazol-4-yl)-1-oxo-2,3,4,5-tetrahydro-1H-[1,4]diazepino[1,2-a]benzimidazole-8-carboxamide] | 4000
CCn1c(NC(=O)c2ccc3nc4n(c3c2)CCCNC4=O)nc2ccc(Cl)nc21 [Example 15, N-(5-chloro-3-ethyl-3H-imidazo[4,5-b]pyridin-2-yl)-1-oxo-2,3,4,5-tetrahydro-1H-[1,4]diazepino[1,2-a]benzimidazole-8-carboxamide] | 45
CN(C)CCCn1c(NC(=O)c2ccc3nc4n(c3c2)CCCNC4=O)nc2ccccc21 [Example 16, N-{1-[3-(dimethylamino)propyl]-1H-benzimidazol-2-yl}-1-oxo-2,3,4,5-tetrahydro-1H-[1,4]diazepino[1,2-a]benzimidazole-8-carboxamide] | 92
CCn1c(NC(=O)c2ccc3nc4n(c3c2)CCCNC4=O)nc2cccnc21 [Example 17, N-(3-ethyl-3H-imidazol[4,5-b]pyridin-2-yl)-1-oxo-2,3,4,5-tetrahydro-1H-[1,4]diazepino[1,2-a]benzimidazole-8-carboxamide] | 23

Now from value to compound:

IC50 [nM] | SMILES
3 | C[C@@H]1NC(=O)c2cc3ccc(C(=O)Nc4cnn(Cc5ccccc5)c4)nc3n2[C@H]1C (relative stereo) [Example 62, N-(1-benzyl-1H-pyrazol-4-yl)-trans-8,9-dimethyl-6-oxo-6,7,8,9-tetrahydropyrido[3′,2′:4,5]pyrrolo[1,2-a]pyrazine-2-carboxamide]
11.6 | CCn1c(NC(=O)c2ccc3cc4n(c3n2)[C@@H](C)[C@@H](C)NC4=O)nc2ccccc21 (relative stereo) [Example 73, N-(1-ethyl-1H-benzimidazol-2-yl)- cis-8,9-dimethyl-6-oxo-6,7,8,9-tetrahydropyrido[3′,2′:4,5]pyrrolo[1,2-a]pyrazine-2-carboxamide]
1110 | CCn1c(NC(=O)c2ccc3cc4n(c3n2)[C@@H](C)[C@H](C)NC4=O)nc2ccccc21 (relative stereo) [Example 74, N-(1-ethyl-1H-benzimidazol-2-yl)- trans-8,9-dimethyl-6-oxo-6,7,8,9-tetrahydropyrido[3′,2′:4,5]pyrrolo[1,2-a]pyrazine-2-carboxamide]
29 | C[C@H]1NC(=O)c2cc3ccc(C(=O)Nc4nc5ccccc5n4CCCN(C)C)nc3n2[C@H]1C (relative stereo) [Example 77, N-{1-[3-(dimethylamino)propyl]-1H-benzimidazol-2-yl}-cis-8,9-dimethyl-6-oxo-6,7,8,9-tetrahydropyrido[3′,2′:4,5]pyrrolo[1,2-a]pyrazine-2-carboxamide]
205 | C[C@@H]1NC(=O)c2cc3ccc(C(=O)Nc4nc5ccccc5n4CCCN(C)C)nc3n2[C@H]1C (relative stereo) [Example 78, N-{1-[3-(dimethylamino)propyl]-1H-benzimidazol-2-yl}-trans-8,9-dimethyl-6-oxo-6,7,8,9-tetrahydropyrido[3′,2′:4,5]pyrrolo[1,2-a]pyrazine-2-carboxamide]
2.6 | Cc1cc(NC(=O)c2ccc3cc4n(c3n2)[C@@H](C)[C@@H](C)NC4=O)no1 (relative stereo) [Example 85, Cis-8,9-dimethyl-N-(5-methyl-1,2-oxazol-3-yl)-6-oxo-6,7,8,9-tetrahydropyrido[3′,2′:4,5]pyrrolo[1,2-a]pyrazine-2-carboxamide]
110 | Cc1cc(NC(=O)c2ccc3cc4n(c3n2)[C@@H](C)[C@H](C)NC4=O)no1 (relative stereo) [Example 86, Trans-8,9-dimethyl-N-(5-methyl-1,2-oxazol-3-yl)-6-oxo-6,7,8,9-tetrahydropyrido[3′,2′:4,5]pyrrolo[1,2-a]pyrazine-2-carboxamide]
5.1 | C[C@H]1NC(=O)c2cc3ccc(C(=O)Nc4cc(Cc5ccccc5)on4)nc3n2[C@H]1C (relative stereo) [Example 99, N-(5-benzyl-1,2-oxazol-3-yl)-cis-8,9-dimethyl-6-oxo-6,7,8,9-tetrahydropyrido[3′,2′:4,5]pyrrolo[1,2-a]pyrazine-2-carboxamide]
57 | C[C@@H]1NC(=O)c2cc3ccc(C(=O)Nc4cc(Cc5ccccc5)on4)nc3n2[C@H]1C (relative stereo) [Example 100, N-(5-benzyl-1,2-oxazol-3-yl)-trans-8,9-dimethyl-6-oxo-6,7,8,9-tetrahydropyrido[3′,2′:4,5]pyrrolo[1,2-a]pyrazine-2-carboxamide]
